Assay results: patent US11634466B2, “Musclin peptides and methods of use thereof” (UNIVERSITY OF IOWA RESEARCH FOUNDATION, priority 2016, dated 2023)

Tests used:
[1] = test system: mTORC1 targets (4EBP1, P70S6K); assay: Western blot of mTOR targets in skeletal muscle after musclin infusion; type: in vivo; conditions: WT mice
Protocol: Western blotting: Whole cell protein extracts were prepared by homogenizing skeletal muscle tissue in NaCl 150 mM, Tris-HCl 50 mM (pH 7.8), supplemented with 1.5% Triton X-100, protease and phosphatase inhibitors (Roche). Nuclear extracts were obtained using the Subcellular Protein Fractionation Kit for Tissues (Thermo Scientific).
Electrophoresis was performed on 3-8% gradient Nu-Page Tris-Acetate or 10% Nu-Page Bis-Tris gels and transferred to 0.2 μm Sequi-Blot PVDF membranes (Bio-Rad). The membranes were blotted with total AKT1 and phospho-AKT1([…], T308, Cell Signaling), FOXO1 (Cell Signaling), total OXPHOS (rodent, Abcam), musclin (custom rabbit IgG produced against partial mouse musclin sequence NH2-sfsgfgspldrlsagsvehrgkqrkavdhskkr-COOH (SEQ ID NO: 4), corresponding to amino acids 80-112, Gen Bank ID: AAS87598.1, Anaspec, Fremont, Calif.), and GAPDH (Santa Cruz Biotechnologies) antibodies. Densitometric analysis of western blots was performed using Adobe Photoshop (Adobe Systems, San Jose, Calif.).
These findings are paralleled by more pure glycolytic fibers and greater fatigability in tibialis anterior (TA) muscles of exercise-trained Ostn-KO vs. WT mice (FIGS. 13A-13C). […] GSK3β phosphorylation is associated with increased autophosphorylation of mTOR at S2481 (FIGS. 14A-14B). Furthermore, consistent with the known activating effect of GSK3β inhibition on mTORC1, we find increased phosphorylation of the mTOR targets 4EBP1, P70S6K and ULK1 in skeletal muscles of trained WT vs. Ostn-KO mice 1 h after last exercise (FIGS. 15A-15B). […] We also find that skeletal muscle autophagy flux 1 h after last exercise is increased in exercise-trained Ostn-KO vs. WT, as reflected in higher LC3A II/I ratio and lower expression of P62 on western blots (FIGS. 16A-16G).

WT and Ostn-KO mice = assay: VO2 max / oxygen consumption on metabolic treadmill (indirect calorimetry) after musclin infusion; type: in vivo; conditions: for oxygen consumption, VO2, over time upon initiation of treadmill exercise: 3 weeks of musclin by osmotic pump
Description: Natriuretic peptide/cGMP signaling is increasingly recognized as a key regulator of metabolic homeostasis, including effects on skeletal muscle mitochondrial biogenesis and oxidative phosphorylation potential. Maximal aerobic capacity (VO2 max) is commonly used to estimate overall aerobic fitness based on cardiopulmonary function and oxidative phosphorylation potential. To determine whether musclin production impacts aerobic capacity as a potential mechanism underlying differences in exercise tolerance, exercise-trained Ostn-KO and WT mice were monitored on a metabolic treadmill equipped for indirect calorimetry (Columbus instruments, Columbus Ohio). After 5 days of training, mice were placed on the stationary treadmill for 30 minutes and then were exposed to the protocol of escalating exercise workload to determine their VO2 max. […] To assess this, electron micrographs of longitudinal sections through tibialis anterior of exercised mice were examined and appear to show smaller mitochondrial size in the Ostn-KO compared to WT mice (FIG. 6B). […] Furthermore, disruption of normal musclin signaling appears to impact fiber type composition. Specifically, histologic examination of skeletal muscles from Ostn-KO vs. WT mice indicates a shift towards more pure glycolytic type IIb fibers in the KO (FIGS. 10A-10B). Differences between sedentary WT and Ostn-KO mice were less marked (FIGS. 11A-11G), which were consistent with the findings that exercise augments musclin signaling in the WT mice. […] The pattern of distribution of fiber types from muscles of sedentary WT and Ostn-KO was similar to that of their exercise-trained counterparts, consistent with a slower adaptation of fiber type to exercise, except that there was a slightly more prominent component of type IIA fibers in exercised mice (FIG. 12, n=4 each for tibialis anterior and n=3 each for biceps femoris, *p<0.05).
Whole body composition was obtained by time-domain nuclear magnetic resonance under isoflurane anesthesia (Bruker Minispec; Billerica, Mass.). […]
A multi-lane treadmill (Columbus Instruments, Columbus, Ohio) was used to simultaneously exercise model mice with their controls. […] For indirect calorimetry, oxygen consumption (VO2) and CO2 generation were measured using a two-lane modular treadmill connected to the Oxymax indirect calorimetry system (Columbus Instruments, Inc.). […]

[2] = biological target: T1, NP clearance receptor, NPRC (Homo sapiens, UniProt P17342); conditions: background statement; cited from earlier work
T1 sequence (P17342 27-541): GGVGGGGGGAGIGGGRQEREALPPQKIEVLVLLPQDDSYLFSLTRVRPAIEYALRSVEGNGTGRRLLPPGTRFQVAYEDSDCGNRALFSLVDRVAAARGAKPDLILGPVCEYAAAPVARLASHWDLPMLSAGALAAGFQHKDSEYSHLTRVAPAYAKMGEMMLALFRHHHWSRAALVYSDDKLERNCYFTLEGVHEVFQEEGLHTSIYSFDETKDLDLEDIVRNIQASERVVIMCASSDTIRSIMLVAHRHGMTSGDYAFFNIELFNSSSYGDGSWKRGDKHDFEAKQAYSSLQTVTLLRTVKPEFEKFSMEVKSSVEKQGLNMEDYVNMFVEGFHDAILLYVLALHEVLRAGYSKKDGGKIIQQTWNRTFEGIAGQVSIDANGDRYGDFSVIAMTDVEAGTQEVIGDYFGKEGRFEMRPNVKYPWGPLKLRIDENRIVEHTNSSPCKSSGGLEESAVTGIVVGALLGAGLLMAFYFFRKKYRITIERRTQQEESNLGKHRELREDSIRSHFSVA

[3] = musclin 1 ng/g/h i.p. by osmotic pump for 7 d, skeletal muscle western blot, n=3

Substance: H-SFSGFGSPLDRLSAGSVEHRGKQRKAVDHSKKR-OH [musclin]
- 4EBP1/GAPDH [1, 3]: 1.78±0.05
- P70S6K/GAPDH [1, 3]: 1.73±0.03
- p-4EBP1/total 4EBP1 [1, 3]: 0.59±0.07
- p-P70S6K/total P70S6K [1, 3]: 0.32±0.06
- phosphorylation of mTORC1 targets ([1]; musclin 1 ng/g/h i.p. for 7 d vs. saline-treated mice): greater phosphorylation
- VO2 max (WT and Ostn-KO mice; Ostn-KO mice after 3 weeks of musclin infusion via osmotic pumps, n=3): 136.6 ± 1.67 mL/min/kg
- oxygen consumption, VO2, over time upon initiation of treadmill exercise (WT and Ostn-KO mice; Ostn-KO mice, vs. WT treated with saline): better than WT treated with saline once steady state was achieved
- VO2 max (WT and Ostn-KO mice; WT mice after 3 weeks of musclin infusion via osmotic pumps, n=4): 133.9 ± 1.28 mL/min/kg
- oxygen consumption, VO2, over time upon initiation of treadmill exercise (WT and Ostn-KO mice; WT mice, vs. WT mice treated with saline): slightly better for several time points
- binding to NPRC [2]: affinity comparable to NPs
